The structures appear in SMILES notation. Converted amounts (≈) assume the structure as drawn.

As a reminder, the half-life is the time in which the quantity being followed falls by half. Lower therefore signals rapid decline. As usually defined, the kinetic solubility is the concentration staying in solution when a stock, usually in DMSO, is diluted into the medium. One may read the Papp A→B as the apparent permeability from the apical to the basolateral side of a cell layer. The IC50 is the concentration that gives 50% inhibition. For orientation: chromatographic logD means lipophilicity estimated from chromatographic retention. Low values mean lower lipophilicity, high ones higher lipophilicity. Broadly, the Papp B→A is how fast a substance crosses the layer from the basolateral side.

The target in series [1] is T1, MDR1 (ABCB1) (Homo sapiens, UniProt P08183). As to the kind of experiment: DNDI: % of compound recovered from membrane of apical to basolateral permeability assay in MDCK cells transfected with human MDR1 after 60 mins at a concentration of 3uM. It counts as ADME, cell-based, Canis lupus familiaris. To be noted: dog, read-out: Mem Rec.
T1 sequence (P08183 whole entry): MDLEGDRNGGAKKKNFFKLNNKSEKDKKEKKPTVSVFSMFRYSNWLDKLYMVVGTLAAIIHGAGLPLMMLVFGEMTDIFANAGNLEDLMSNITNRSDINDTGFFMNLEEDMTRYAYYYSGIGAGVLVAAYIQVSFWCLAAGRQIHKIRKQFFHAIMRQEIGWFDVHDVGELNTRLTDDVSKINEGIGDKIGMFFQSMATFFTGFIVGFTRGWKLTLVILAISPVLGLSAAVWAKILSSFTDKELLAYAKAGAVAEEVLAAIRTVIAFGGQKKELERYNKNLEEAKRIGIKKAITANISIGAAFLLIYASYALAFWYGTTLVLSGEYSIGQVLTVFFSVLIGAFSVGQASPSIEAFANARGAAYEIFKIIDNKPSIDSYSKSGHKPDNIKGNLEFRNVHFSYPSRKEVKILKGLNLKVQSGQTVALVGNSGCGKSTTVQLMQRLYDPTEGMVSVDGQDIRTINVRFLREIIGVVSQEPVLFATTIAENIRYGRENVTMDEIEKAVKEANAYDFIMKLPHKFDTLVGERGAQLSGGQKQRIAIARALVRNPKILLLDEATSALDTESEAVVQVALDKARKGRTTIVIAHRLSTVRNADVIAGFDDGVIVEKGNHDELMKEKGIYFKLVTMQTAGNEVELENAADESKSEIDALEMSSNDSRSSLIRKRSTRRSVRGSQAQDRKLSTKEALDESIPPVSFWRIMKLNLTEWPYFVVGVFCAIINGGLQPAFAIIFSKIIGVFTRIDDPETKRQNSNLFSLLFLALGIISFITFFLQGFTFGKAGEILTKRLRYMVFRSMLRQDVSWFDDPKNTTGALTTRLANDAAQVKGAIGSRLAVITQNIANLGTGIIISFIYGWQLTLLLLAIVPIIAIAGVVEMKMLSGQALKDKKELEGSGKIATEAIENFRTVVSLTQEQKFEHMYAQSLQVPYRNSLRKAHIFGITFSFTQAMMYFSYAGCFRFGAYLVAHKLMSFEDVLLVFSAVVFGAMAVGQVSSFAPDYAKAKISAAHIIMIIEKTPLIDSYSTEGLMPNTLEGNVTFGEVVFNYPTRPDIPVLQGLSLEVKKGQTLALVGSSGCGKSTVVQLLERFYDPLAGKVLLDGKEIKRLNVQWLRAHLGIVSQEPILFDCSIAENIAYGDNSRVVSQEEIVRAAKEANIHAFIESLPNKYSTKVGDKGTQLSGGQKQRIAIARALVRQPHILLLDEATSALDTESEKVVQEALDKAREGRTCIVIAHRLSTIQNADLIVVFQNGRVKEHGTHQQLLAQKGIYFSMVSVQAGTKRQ
The target in series [2] is T1, MDR1 (ABCB1). As to the kind of experiment: DNDI: % of compound recovered from apical to basolateral permeability assay in MDCK cells transfected with human MDR1 after 60 mins at a concentration of 3uM in the presence of GF120918. To be noted: dog, MDCK-MDR1, with GF120918 (concentration not stated). It counts as ADME, cell-based, Canis lupus familiaris.
Series [3] is described as follows: DNDI: half-life in mouse S9 microsomes at a concentration of 1uM. It counts as ADME, subcellular, Liver, S9 fraction.
Series [4] is described as follows: DNDI: Solubility in phosphate buffered saline at pH7.4 measured by nephelometry at room temperature (NEPH-RT). It counts as physicochemical. As to conditions: pH 7.4.
The target of series [5] is T1, MDR1 (ABCB1). Briefly: DNDI: % of compound recovered from membrane of apical to basolateral permeability assay in MDCK cells transfected with human MDR1 after 60 mins at a concentration of 3uM in the presence of GF120918. It counts as ADME, cell-based, Canis lupus familiaris. As to conditions: dog, MDCK-MDR1, with GF120918 (concentration not stated); read-out: Mem Rec.

Series [6] deals with T1, MDR1 (ABCB1). Briefly: DNDI: Efflux ratio for permeability from basolateral to apical side to apical to basolateral side of MDCK cells transfected with human MDR1. It counts as ADME, cell-based, Canis lupus familiaris. As to conditions: dog.
The target of series [7] is T1, MDR1 (ABCB1). Briefly: DNDI: Apparent permeability from apical to basolateral side of the MDCK cell transfected with human MDR1after 60 mins at a concentration of 3uM. It counts as ADME, cell-based, Canis lupus familiaris. As to conditions: dog, MDCK-MDR1.
Series [8] in a line: DNDI: Cytotoxicity against L929 mouse fibroblasts, 72 hour. The class given is toxicity, cell-based. As to conditions: mouse, L929 mouse fibroblasts.
Series [9] deals with Trypanosoma brucei. As to the kind of experiment: DNDI: Inhibition of Human African Trypanosomiasis, SBRI 427, in vitro. The class given is functional, organism-based. As to conditions: Trypanosoma brucei, SBRI 427; read-out: IC50.
Series [10] addresses T1, MDR1 (ABCB1). Briefly: DNDI: % of compound recovered from apical to basolateral permeability assay in MDCK cells transfected with human MDR1 after 60 mins at a concentration of 3uM. To be noted: dog. The class given is ADME, cell-based, Canis lupus familiaris.
Series [11] in a line: DNDI: Lipophilicity measured in Chromatographic hydrophobicity index (CHI) assay, pH 7.4. The class given is physicochemical. As to conditions: buffer.
Series [12] has as its system Trypanosoma brucei. As to the kind of experiment: DNDI: Mean survival time in days (MSD) of mice after intraperitoneal injection of Human African Trypanosomiasis (HAT), STIB 795, in vivo at 50 mg/kg/day for 4 days. It counts as functional, Mus musculus.
For series [13], the system named is Trypanosoma brucei. As to the kind of experiment: DNDI: Mean survival time in days (MSD) of mice after p.o. administration of Human African Trypanosomiasis (HAT), STIB 795, in vivo at 100 mg/kg/day for 4 days. The class given is functional, Mus musculus. To be noted: route oral.
The conditions of series [14]: mouse, microsomes, 1 µM.
Description: DNDI: in vitro intrinsic clearance in mouse liver microsomes at a concentration of 1uM
A short description of series [15]: in vitro. To be noted: mouse, liver microsomes, t (1 / 2). Background: Liver microsomes are vesicles of endoplasmic reticulum, rich in cytochrome P450 enzymes.
Description: DNDI: half life in mouse liver microsomes at a concentration of 1uM
Series [16] can be described thus: DNDI: Cytotoxicity against L-6 rat myoblasts from skeletal muscle cells. The class given is toxicity, cell-based, L6. To be noted: L-6 rat skeletal muscle myoblasts.
In series [17] the test system is Trypanosoma brucei. As to the kind of experiment: DNDI: Mean survival time in days (MSD) of mice after intraperitoneal injection of Human African Trypanosomiasis (HAT), EATRO 110, in vivo at 20 mg/kg/day for 4 days. The class given is functional, Mus musculus.
Series [18] in a line: DNDI: in vitro intrinsic clearance in human liver microsomes at a concentration of 10uM. It counts as ADME, Microsome.
Series [19] has as its system Trypanosoma brucei. As to the kind of experiment: DNDI: Mean survival time in days (MSD) of mice after intraperitoneal injection of Human African Trypanosomiasis (HAT), EATRO 110, at 0.5 mg/kg/day for 4 days. The class given is functional, Mus musculus.
Series [20] concerns Trypanosoma brucei. As to the kind of experiment: DNDI: Mean survival time in days (MSD) of mice after intraperitoneal injection of Human African Trypanosomiasis (HAT), EATRO 110, in vivo at 2.5 mg/kg/day for 4 days. The class given is functional, Mus musculus.
Series [21] concerns Trypanosoma brucei. As to the kind of experiment: DNDI: Mean survival time in days (MSD) of mice after intraperitoneal injection of Human African Trypanosomiasis (HAT), EATRO 110, in vivo at 5 mg/kg/day for 4 days. It counts as functional, Mus musculus.
Series [22] relates to Plasmodium falciparum. As to the kind of experiment: DNDI: Inhibition of the malaria parasite Plasmodium falciparum, in vitro. The class given is functional, organism-based. To be noted: K1.
Series [23] in a line: DNDI: Solubility in phosphate buffered saline at pH7.4 measured by optical density (turbidimetry) at room temperature (OD-RT). The class given is physicochemical. As to conditions: pH 7.4.
Series [24] is described as follows: DNDI: half life in mouse liver microsomes at a concentration of 10uM. It counts as ADME, Microsome.
Series [25] concerns Trypanosoma brucei. As to the kind of experiment: DNDI: Mean survival time in days (MSD) of mice after intraperitoneal injection of Human African Trypanosomiasis (HAT), EATRO 110, in vivo at 12.5 mg/kg/day for 4 days. It counts as functional, Mus musculus.
For series [26], the system named is Trypanosoma brucei rhodesiense. Briefly: DNDI: Inhibition of Human African Trypanosomiasis (HAT), STIB 900, in vitro. It counts as functional, organism-based.
The nature of series [27]: DNDI: half life in human liver microsomes at a concentration of 10uM. It counts as ADME, Microsome.
A short description of series [28]: DNDI: in vitro intrinsic clearance in mouse liver microsomes at a concentration of 10uM. The class given is ADME, Microsome. To be noted: read-out: CLint in vitro.
For series [29], the system named is Leishmania donovani. As to the kind of experiment: DNDI: Inhibition of formation of Leishmania donovani (strain MHOM/ET/67/L82) axenic amastigotes, in vitro. It counts as functional, organism-based.
Series [30] in a line: DNDI: Cytotoxicity against L929 mouse fibroblasts, CYTO-SP, 24 hour. The class given is toxicity, cell-based. To be noted: mouse, L929 mouse fibroblasts.
Series [31] deals with Trypanosoma brucei. Briefly: DNDI: Mean survival time in days (MSD) of mice after intraperitoneal injection of Human African Trypanosomiasis (HAT), EATRO 110, in vivo at 1.25 mg/kg/day for 4 days. It counts as functional, Mus musculus.
Series [32] has as its system Trypanosoma cruzi. As to the kind of experiment: DNDI: Inhibition of Chagas Disease parasite Trypanosoma cruzi (Tulahuen LacZ, Clone C4), in vitro. It counts as functional, organism-based.
Series [33] has as its target T1, MDR1 (ABCB1). As to the kind of experiment: DNDI: Apparent permeability from basolateral to apical side of the MDCK cell transfected with human MDR1 after 60 mins at a concentration of 3uM. The class given is ADME, cell-based, Canis lupus familiaris. To be noted: dog.
The target of series [34] is T1, MDR1 (ABCB1). Briefly: DNDI: % of compound recovered from apical to basolateral permeability assay in MDCK cells transfected with human MDR1. To be noted: dog. The class given is ADME, cell-based, Canis lupus familiaris.
Series [35] relates to Trypanosoma brucei. Briefly: DNDI: Inhibition of Human African Trypanosomiasis, EATRO 110, in vitro. It counts as functional, organism-based.
Series [36] deals with T1, MDR1 (ABCB1). Briefly: DNDI: % of compound recovered from basolateral to apical permeability assay in MDCK cells transfected with human MDR1. It counts as ADME, cell-based, Canis lupus familiaris. As to conditions: dog.
Series [37] addresses T1, MDR1 (ABCB1). As to the kind of experiment: DNDI: Apparent permeability from apical to basolateral side of the MDCK cell transfected with human MDR1. To be noted: dog. It counts as ADME, cell-based, Canis lupus familiaris.

`CC(C)(C)c1cc(N2CCNCC2)n2nc(-c3ccc(F)cc3)cc2n1`: the recovery at 1 h, 3 µM in series [1] was determined as 88.4%; in [2], 91%; in series [5], 76.1%; in series [10], 103%. Moreover, in series [3], the half-life at 1 µM is more than 350 min. In series [4], this compound displayed a kinetic solubility of 50 µM (≈ 17.7 µg/mL). For the same compound, the efflux ratio in [6] (MDCK-MDR1, read-out: Calculated Ratio) is 0.08. The apparent permeability from apical to basolateral (Papp A→B) at 1 h, 3 µM in series [7] was determined as 10.3 ×10⁻⁶ cm/s. Half-maximal inhibition in series [8] (IC50 at 72 h) was put at 2.75 µg/mL (≈ 7.78 µM). Further, the concentration for half-maximal inhibition (IC50) in [9] was 1.11 µg/mL (≈ 3.14 µM). Also, the chromatographic logD in series [11] amounted to 4.15.

Take `CCCCc1ccc(-c2nc(CNCCCN(C)C)co2)cc1`: the MSD in series [12] and in [13] was 7 days each time. Besides, the solubility (kinetic) in series [4] is less than 1 µM. Moreover, the IC50 at 72 h in series [8] came to 1.4 µg/mL (≈ 4.44 µM). In addition, the half-inhibitory concentration (IC50) in [9] was 0.07 µg/mL (≈ 0.222 µM). The compound further returned a CLint in vitro in series [14] of 9 µL/min/mg. This compound also displayed a chromatographic logD in series [11] of 5.07. Moreover, the half-life at 1 µM in [15] is 96 min.

In the case of `COc1ccc(/C(=N/O)NC2CCCCC2)cc1`, the half-inhibitory concentration (IC50) is 58.3 µg/mL (≈ 235 µM) in [16]; 4.7 µg/mL (≈ 18.9 µM) in [22]; 18.3 µg/mL (≈ 73.7 µM) in series [26]; 0.61 µg/mL (≈ 2.46 µM) in series [9]; 11.9 µg/mL (≈ 48 µM) in series [29]; more than 30 µg/mL in series [32]. In addition, the MSD was 4.6 days in series [17]; 4 days in series [19]; 4 days in series [20]; 4.3 days in series [21]; 4 days in series [25]; 4 days in [31]. The CLint in vitro amounted to 38 µL/min/mg in series [18] and 329 µL/min/mg in [14]. In [23], this compound showed a kinetic solubility of 50 µM (≈ 12.4 µg/mL). Further, the half-life at 10 µM in series [24] is 5 min; in series [27] it was 76 min. The IC50 at 72 h in [8] is more than 10 µg/mL. Besides, in [28], the microsomal CLint at 10 µM was determined as 544 µL/min/mg. Further, the chromatographic logD in series [11] is 3.82. In series [30], the 50% inhibitory concentration (IC50) at 24 h is more than 50 µg/mL. For the same compound, the half-life at 1 µM in [15] was 3 min.

Take `COc1ccccc1Oc1ncccc1/C(=N\O)NC1CCCCC1`: the MSD was found to be 4.3 days in series [17]; 4 days in series [19]; 4 days in series [20]; 4 days in series [21]; 4 days in series [25]; 4 days in [31]. Moreover, in series [33], the Papp B→A at 1 h, 3 µM was 48.3 ×10⁻⁶ cm/s. The compound also returned a kinetic solubility in series [23] of 25 µM (≈ 8.54 µg/mL). In series [6] (read-out: B-A/A-B), the efflux ratio is 2.6. The same compound had a half-life at 10 µM in [24] of 21 min. In addition, the recovery in series [34] was 77%; in [36], 84%. Also, the figures for the IC50 in series [9] and in series [35] were 0.78 µg/mL (≈ 2.28 µM) and 1.56 µg/mL (≈ 4.57 µM), respectively. Besides, the microsomal CLint at 10 µM in series [28] was determined as 138 µL/min/mg. The chromatographic logD in series [11] came out at 3.77. In addition, in [30], the IC50 at 24 h is more than 50 µg/mL. The Papp A→B in series [37] was determined as 18.4 ×10⁻⁶ cm/s.

Values taken from ChEMBL document CHEMBL1857833, “Screening and optimization of specific chemical series against human African Trypanosomiasis (HAT)”.
